{
  "source": "patent US12178825B2",
  "about": "“Method and compositions for forming a copper-containing complex and uses thereof” (COLD SPRING HARBOR LABORATORY, priority 2017, dated 2024)",
  "key": {"PTP1B-L192A/S372P": {"target": "PTP1B-L192A/S372P (Homo sapiens, UniProt P18031, L192A/S372P)", "sequence (P18031 whole entry L192A/S372P)": "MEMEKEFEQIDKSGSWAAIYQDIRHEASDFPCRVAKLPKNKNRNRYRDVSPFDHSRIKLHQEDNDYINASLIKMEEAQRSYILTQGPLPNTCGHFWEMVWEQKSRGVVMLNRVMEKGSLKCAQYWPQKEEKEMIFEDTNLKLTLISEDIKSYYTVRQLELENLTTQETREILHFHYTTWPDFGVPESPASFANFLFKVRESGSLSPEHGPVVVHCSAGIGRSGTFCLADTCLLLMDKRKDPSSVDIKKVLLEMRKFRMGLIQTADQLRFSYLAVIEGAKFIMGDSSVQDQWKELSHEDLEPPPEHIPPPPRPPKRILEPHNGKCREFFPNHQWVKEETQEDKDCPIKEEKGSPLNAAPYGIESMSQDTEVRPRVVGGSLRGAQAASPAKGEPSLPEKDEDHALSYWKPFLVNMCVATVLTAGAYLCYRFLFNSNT", "test": "Phosphatase assay with MSI-1436-resistant mutant", "format": "biochemical", "conditions": "read-out: IC50 against PTP1B-L192A/S372P", "text": "(§1) All common reagents were obtained from Thermo Fisher Scientific (Waltham, MA) or Sigma-Aldrich (St. Louis, MO). Difluoro-4-methylumbelliferyl phosphate (DiFMUP) was obtained from Invitrogen (cat #D22065). Solid black 384-well plates (cat #3573) for phosphatase assays were from Corning Incorporated (Corning, NY)."}, "TNBC cells": {"system": "TNBC cells", "test": "Cellular copper levels by ICP-MS", "format": "cell-based", "description": "TNBC cells (1×10^6) were plated in a 10-cm culture dish in growth medium. About 24 h after seeding cells, they were untreated or treated with DPM-1001 (2 uM) or DPM-1003 (2 uM) for 2 h. Following which, cells were washed three times with PBS. Then, 215 μl of concentrated nitric acid (BDH Aristar Ultra) was added to each sample and incubated overnight. Samples were boiled at 95° C. for 1 h. and approximately 150 μl of each sample was further diluted in 2 ml 2% nitric acid (made freshly from concentrated nitric acid and Milli-Q water). Samples were analyzed on a Thermo Fisher iCAP Qc ICP mass spectrometer in kinetic energy discrimination (KED) mode against a calibration curve of known copper and phosphorus concentrations, with Ga (20 μg/l, Inorganic Ventures) as an internal standard. Each experiment was carried out twice and each condition was repeated in at least triplicate."}, "non-TNBC cell lines": {"system": "non-TNBC cell lines", "test": "MTT cell survival, non-TNBC cell lines", "format": "cell-based", "description": "(§2) The MTT assay was used to evaluate cell survival in the absence and presence of different compounds. The thiazolyl blue tetrazolium bromide (MTT) was dissolved in phosphate buffered saline (PBS) at a concentration of 5 mg/ml, filtered, and stored at 4° C. About 10,000 cells were seeded into a 96-well plate and cultured in growth medium containing serum. After 24 hours, cells were treated with the indicated concentrations of DPM-1001 or DPM-1003 (0-100 uM) for 2 hrs. Following which 20 μl MTT was added into each well. An ELISA plate reader (Biotek, Winooski, Vermont, USA) was used to measure the optical density at 490 nm."}, "[1]": {"system": "ATP7B-knockdown HepG2 cells", "test": "Copper-induced toxicity, MTT cell survival", "format": "cell-based", "conditions": "DPM-1001 2 μM; ATP7B-knockdown HepG2", "description": "HepG2 cells purchased from ATCC were cultured in RPMI media containing 10% FBS, 5% CO2 at 37 C. Control (AG09319) and Wilson's disease patient-derived fibroblasts (GM00032, GM00033, GM05257, GM12158, GM05798 and GM11778) were obtained from Coriell Biorepository and cultured in DMEM, 10% FBS, 5% CO2 at 37° C.\nFor cell survival assays, 10,000 cells were seeded in a 96 well plate and cultured until fully confluent (90%). To these cells, ATP7B siRNAs or scrambled siRNA (negative control) purchased from Qiagen and Santa Cruz Biotechnology were transfected. Lipofectamine RNAiMAX reagent (Thermofischer) and siRNAs were diluted into a final volume of 100 μl in Opti-MEM (Gibco). The mixture was incubated at room temperature for 30 min, following which 800 μl of Opti-MEM was added to the mixture. The above transfection solution was overlaid onto cells at a final concentration of 5 nM siRNA. Transfection of HepG2 cells with scrambled siRNA served as negative control. Twelve hours after the transfection, complete media was added to each well. Following which, knockdown efficiency was checked (24 hours later) and cells were exposed to varying concentration of copper (0-1 mM) for 12 h and cell viability was determined using the MTT assay as previously described (37). […]"}, "N87": {"system": "N87", "test": "Cell survival", "format": "cell-based", "description": "as §2"}, "SNU1": {"system": "SNU1", "test": "Cell survival", "format": "cell-based", "description": "as §2"}, "SNU116 cells": {"system": "SNU116 cells", "test": "Cell survival", "format": "cell-based", "description": "as §2"}, "MDA-MB-468 cells": {"system": "MDA-MB-468 cells", "test": "Cell survival", "format": "cell-based", "description": "as §2"}, "AGS cells": {"system": "AGS cells", "test": "Cell survival", "format": "cell-based", "description": "as §2"}, "KATOIII cells": {"system": "KATOIII cells", "test": "Cell survival", "format": "cell-based", "description": "as §2"}, "SNU5 cells": {"system": "SNU5 cells", "test": "Cell survival", "format": "cell-based", "description": "as §2"}, "NIH 3T3 cells": {"system": "NIH 3T3 cells", "test": "Cell survival", "format": "cell-based", "description": "as §2"}, "PTP1B1-405": {"target": "T1, PTP1B1-405 (Homo sapiens, UniProt P18031)", "T1 construct": "PTP1B1-405 (the long form of PTP1B which contains the extended C-terminal segment); made in house; host or cells: Escherichia coli BL21 (DE3)-RIL", "T1 sequence (P18031 1-405)": "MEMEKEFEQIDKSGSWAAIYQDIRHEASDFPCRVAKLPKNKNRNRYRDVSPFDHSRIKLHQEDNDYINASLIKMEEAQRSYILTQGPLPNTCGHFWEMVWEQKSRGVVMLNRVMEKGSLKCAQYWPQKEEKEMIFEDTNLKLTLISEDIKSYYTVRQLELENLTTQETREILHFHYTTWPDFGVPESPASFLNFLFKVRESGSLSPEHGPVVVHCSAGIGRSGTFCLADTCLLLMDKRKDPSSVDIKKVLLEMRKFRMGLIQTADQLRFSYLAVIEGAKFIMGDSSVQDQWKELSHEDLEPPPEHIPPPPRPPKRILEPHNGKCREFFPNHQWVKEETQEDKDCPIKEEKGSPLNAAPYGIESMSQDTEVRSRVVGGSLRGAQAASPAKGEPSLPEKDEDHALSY", "test": "PTP1B phosphatase activity assay, DiFMUP substrate, long form", "format": "biochemical", "description": "as §1\nWild-type PTP1B containing a His-tag was expressed in Escherichia coli BL21 (DE3)-RIL using LB. Cells were resuspended in lysis buffer (50 mM Hepes pH 7.2, 150 mM NaCl, 10 mM imidazole, 2 mM TCEP) with cOmplete EDTA-free Protease Inhibitor Cocktail (Roche), and then lysed using a sonicator at 4° C. Lysates were clarified by centrifugation. Initial protein purification was by gravity flow, nickel column chromatography. Protein was used immediately or stored at −80° C. in 50 mM HEPES pH 7.4, 100 mM NaCl, 2 mM dithiothreitol and 25% glycerol."}},
  "note": "Entries after “also recorded” stand apart in the source; their conditions may differ. Where two headings read alike, the source gives them in different places.",
  "data": [
    {"smiles": "COC(=O)CCC(C)C1CCC2C3C(O)CC4CC(NCCCCNCc5ccccn5)CCC4(C)C3CCC12C", "note": "(stereo not shown) [DPM-1001]", "values": [
      {"measurement": "IC50", "setting": "PTP1B-L192A/S372P", "value": 1000, "unit": "nM"},
      {"measurement": "cellular copper levels", "setting": "TNBC cells", "value": "depletion of copper; also recorded: reduces cellular copper levels"},
      {"measurement": "survival of non-TNBC cell lines, DPM-1001 versus DPM-1003", "setting": "non-TNBC cell lines", "value": "did not differ from each other"},
      {"measurement": "protection from copper-induced cell death", "setting": "[1]", "value": "able to rescue cells from copper-induced cell death"},
      {"measurement": "survival of N87 cells", "setting": "N87", "value": "inhibited survival; also recorded: inhibitory effect"},
      {"measurement": "survival of SNU1 cells", "setting": "SNU1", "value": "inhibited survival"},
      {"measurement": "survival of SNU116 cells", "setting": "SNU116 cells", "value": "inhibited survival; also recorded: inhibitory effect"},
      {"measurement": "survival of MDA-MB-468 cells", "setting": "MDA-MB-468 cells", "value": "inhibitory effect"},
      {"measurement": "survival of AGS cells", "setting": "AGS cells", "value": "inhibited survival; also recorded: inhibitory effect"},
      {"measurement": "survival of KATOIII cells", "setting": "KATOIII cells", "value": "inhibited survival; also recorded: inhibitory effect"},
      {"measurement": "survival of SNU5 cells", "setting": "SNU5 cells", "value": "inhibited survival; also recorded: inhibitory effect"},
      {"measurement": "survival of NIH 3T3 cells", "setting": "NIH 3T3 cells", "value": "no effect on survival"},
      {"measurement": "IC50", "setting": "PTP1B1-405; after a 30 minute pre-incubation, read-out: IC50 for PTP1B1-405", "value": 100, "unit": "nM"},
      {"measurement": "IC50", "setting": "PTP1B1-405; compound pre-incubated with PTP1B, read-out: IC50, inhibition of PTP1B", "value": 100, "unit": "nM"},
      {"measurement": "reversibility of inhibition of PTP1B1-405", "setting": "PTP1B1-405; enzyme-inhibitor complex diluted, activity recovery monitored", "value": "remained inactive over an extended period of time"},
      {"measurement": "IC50", "setting": "PTP1B1-405; long form PTP1B1-405, DiFMUP substrate (FIG. 1), read-out: IC50, inhibition of the phosphatase", "value": 100, "unit": "nM"},
      {"measurement": "IC50", "setting": "PTP1B1-405; no pre-incubation, read-out: IC50 for PTP1B1-405", "value": 600, "unit": "nM"},
      {"measurement": "time dependence of inhibition of PTP1B1-405", "setting": "PTP1B1-405; presence of catalase", "value": "no obvious time dependence of inhibition"},
      {"measurement": "time dependence of inhibition of PTP1B1-405", "setting": "PTP1B1-405; presence or absence of PRX1", "value": "time-dependent increase in potency"}
    ]}
  ]
}
